What was measured:
[1] = Thermogravimetric analysis (TGA); assay type: physicochemical; details: heating to 400° C. under N2 at 5.0° C./min
Method: Thermogravimetric Analysis (TGA) Thermographs were recorded in a Thermogravimetric Analyzer (TGA) from TA Instruments Inc. (Q500) calibrated with calcium oxalate monohydrate (CaC2O4·H2O) standard to determine if MBQ-167 degrades before melting. Between 1.000-2.000 mg of the crystalline sample were equilibrated at 25° C. for 5 min before heating to 400° C. under N2 atmosphere (60 mL/min) at a rate of 5.0° C./min and a temperature accuracy of 0.1° C. Data was analyzed with the TA Universal Analysis 2000 software (version 4.5A).
Decomposition of the Form I polymorph (a) begins at about 184.7° C., while onset for decomposition of the Form II polymorph (b) begins at about 193.0° C.

[2] = Differential scanning calorimetry (DSC); assay type: physicochemical; details: heating 5.0° C./min under N2
Method: Differential Scanning calorimetry (DSC) DSC was performed to determine the melting temperature (Tm) and enthalpy of fusion (ΔfusH) of MBQ-167. A differential scanning calorimeter (DSC) from TA Instruments Inc. (Q2000) equipped with a RCS40 single-stage refrigeration system was employed to carry out these measurements. The calibration of the DSC was conducted with an indium standard (Tm=156.6° C. and ΔfusH=28.54 J/g). Between 1.000-3.000 mg of the crystalline sample was weighed using a XP26 microbalance from Mettler Toledo (±0.002 mg) and placed on Tzero aluminum pans that were hermetically sealed. Samples were equilibrated at 25° C. for 5 min before heating to 250° C. at a rate of 5.0° C./min and then was cooled to 25° C. at a heating rate of 10° C./min under a N2 atmosphere (50 mL/min) and a temperature accuracy of 0.1° C.
A first endothermic peak, with an onset of 128.22° C. and centered at 129.82° C., corresponding to 0.4504 W/g, is followed by a second endothermic peak, with an onset of 152.81° C. and centered at 153.64° C., corresponding to 0.5809 W/g.
Overlay of the two DSC thermographs, shown in FIG. 3, makes apparent the source of the behavior of the Form II polymorph. The Form I polymorph undergoes a single endothermic phase transition to the melt. […]

SMILES | onset of decomposition (TGA) [1] | centre of first endothermic peak (phase transition to the more stable Form I polymorph) [2] [°C] | onset of first endothermic peak (phase transition to the more stable Form I polymorph) [2] [°C] | decomposition relative to melting (TGA) [1]
CCn1c2ccccc2c2cc(-n3nncc3-c3ccccc3)ccc21 [Form II polymorph, 9-Ethyl-3-(5-phenyl-1H-1,2,3-triazol-1-yl)-9H-carbazole] | about 193.0 °C | 129.82 | 128.22 | –
CCn1c2ccccc2c2cc(-n3nncc3-c3ccccc3)ccc21 [MBQ-167, 9-ethyl-3-(5-phenyl-1H-1,2,3-triazol-1-yl)-9H-carbazole] | – | – | – | starts to decompose after the melting temperature
CCn1c2ccccc2c2cc(-n3nncc3-c3ccccc3)ccc21 [Form I polymorph, 9-Ethyl-3-(5-phenyl-1H-1,2,3-triazol-1-yl)-9H-carbazole] | about 184.7 °C | – | – | –

From patent publication US12209078B2, “Crystalline forms of carbazole inhibitors of RhoGTPase for the treatment of disease” (MBQ Pharma, priority 2021, dated 2025)
